Laboratory results published in patent US11771647B2, “Eye drops in form of solution comprising benzopyran derivative or pharmaceutically acceptable salt thereof” (HANLIM PHARMACEUTICAL CO., LTD., priority 2018, dated 2023).
Each block holds one molecule with its values, some of them ahead of it.

Experiments:
[1] = Manufacturability / solubilization of HL217 eye drop solution (appearance); type: physicochemical; conditions: pH 6.5
Protocol: That is, according to the components and amounts shown in Table 1, HL217, polyethylene glycol 400, glycerin, EDTA, and boric acid were added to the sterile purified water under stirring. The pH was adjusted to 6.5 with an aqueous hydrochloric acid solution and/or an aqueous sodium hydroxide solution; and then sterile purified water was added to the solution, so as to adjust the final volume. The amounts in Table 1 represent the amount of each component per 1 mL of the total volume.
Since the maximum allowable concentration of the U.S. Food and Drug Administration for polyethylene glycol 400 is 50 mg/ml in an eye drop formulation, the amount of polyethylene glycol 400 was adjusted to 1/10 (i.e., 15.0 mg) and correspondingly the amount of glycerin was also adjusted to 1/10 (i.e., 12.0 mg) for evaluating the solubilization of HL217. […] Specifically, according to the components and amounts shown in Table 2, HL217, polyethylene glycol 400, glycerin, EDTA, and boric acid were added to the sterile purified water under stirring. The pH was adjusted to 4.5 with an aqueous hydrochloric acid solution and/or an aqueous sodium hydroxide solution; and then sterile purified water was added to the solution, so as to adjust the final volume. The amounts in Table 2 represent the amount of each component per 1 mL of the total volume. […]

[2] = tested on: mice with very low-density lipoprotein receptor (vldlr) gene knockout; test: Inhibitory efficacy against vascular leakage in animal model of macular degeneration (FIG. 1); type: in vivo; conditions: single intravitreal administration of 1 μl (50 ng/μl ranibizumab) in each eye
Protocol: Lucentis™ injection (Norvatis, Basel, Switzerland) was used as a positive control.
The control group was instilled with 1 drop of sterile physiological saline, in each eye of normal mice (n=8), twice daily for 3 weeks. The AMD-induced group was instilled with 1 drop of sterile physiological saline, in each eye of mice with vldlr gene knockout (vldlr −/− mice), twice daily for 3 weeks. The positive control group received 1 μl of Lucentis™ injection (containing 50 ng/μl of ranibizumab) in each eye of vldlr −/− mice, by a single intravitreal administration using a Hamiltion syringe (Hamilton company, Reno, NV, USA).
The following experiments were carried out In order to evaluate any abnormality of retinal blood vessels, such as angiogenesis formation and abnormal blood vessel permeability. […] The isolated retina was placed on a slide, dropped with an aqueous mounting medium (Fluoromount™, Sigma, St. Louis, MO, USA) and then observed under a fluorescence microscope. For quantitative analysis of tracer dye, blood was collected from the heart 10 minutes after the dye injection, perfused with sterile PBS to remove residual dye from the blood vessels, and then the eyes were extracted to isolate the retina. The isolated retina was homogenized with 100 μL of PBS and then centrifuged to obtain the supernatant, in which the amount of FITC-dextran was then measured using a spectrofluorophotometer. […]

Appearance [1]: precipitates were generated
Molecule: COC(OC)[C@]1(C)Oc2ccc(N)cc2[C@H](N(Cc2ncc[nH]2)c2ccc(Cl)cc2)[C@H]1O [HL217, (2R,3R,4S)-6-amino-4-[N-(4-chlorophenyl)-N-(1H-imidazol-2-ylmethyl)amino]-3-hydroxy-2-methyl-2-dimethoxymethyl-3,4-dihydro-2H-1-benzopyran]

B1: Lucentis™ injection: Lucentis™ injection (Norvatis) containing 50 ng/μl of ranibizumab, used as a positive control (antibody, chains of the INN, looked up, V domains shown)
VH: EVQLVESGGGLVQPGGSLRLSCAASGYDFTHYGMNWVRQAPGKGLEWVGWINTYTGEPTYAADFKRRFTFSLDTSKSTAYLQMNSLRAEDTAVYYCAKYPYYYGTSHWYFDVWGQGTLVTVSS
VL: DIQLTQSPSSLSASVGDRVTITCSASQDISNYLNWYQQKPGKAPKVLIYFTSSLHSGVPSRFSGSGSGTDFTLTISSLQPEDFATYYCQQYSTVPWTFGQGTKVEIK
efficacy (vascular leakage and pathogenic angiogenesis) [2]: significant efficacy only at the 2nd week
